Laboratory results published in patent publication US7745578B2, “Fugetactic proteins, compositions and methods of use” (The General Hospital Corporation, priority 2003, dated 2010).

Key:
[1] = tested on: T-cell infiltration into the peritoneal cavity; test: Intraperitoneal injection of conditioned media and analysis of lymphocyte infiltration; design: species or system BALB/c-DO11 mice; details: after immunoprecipitation of HSP90α from EL-4 CM with a monoclonal antibody; immune challenge in vivo
Description: BALB/c-DO11 mice (kindly provided by Dr. Iacomini, Massachusetts General Hospital) were primed by subcutaneous injection with 100 μl of ovalbumin (ICN Biomedicals; Costa Mesa, Calif.) dissolved in Freund's complete adjuvant (Pierce Biotechnology; Rockford, Ill.) at a concentration 1 mg/ml. Three days later, mice were injected intraperitoneally with 250 μl of ovalbumin dissolved in sterile water at concentration a 0.4 mg/ml. 24 hours later, experimental mice were injected intraperitoneally with 250 μl of EL4CM24, while control mice were injected intraperitoneally with 250 μl of HSF media or protease treated EL4CM24. 24 hours later, cells were extracted from the intraperitoneal space by lavage with 5 ml of cold phosphate buffered saline (Mediatech; Herndon, Va.) and aspiration with a 10 ml syringe and 21-gauge needle. Peritoneal lavage cells were counted on a hemocytometer and then immuno-stained for anti-CD3, CD4, CD8 and TCR-kj-OVA lymphocyte expression (BD BioSciences; San Jose, Calif.) and anti-CD4 (Caltag Laboratories; Burlingame, Calif.) with antibodies labelled with Percp and PE (phytoerythrin) known fluorophor labels. T-cells expressing CD3+, CD3+ CD4+, CD3+ CD8+, CD3+ TCR-kj-OVA were then determined by FACS analysis.

EL4 cells = test: Viability of EL4 cells after inhibitor treatment; type: cell-based; details: EL4 cells in HSF, Brefeldin A 10 μg/ml for 24 hours
Description: EL4CM24 was heat inactivated at 42° C. for 1 hour prior to being used in the transmigration assays described above. […] EL4CM24 was incubated with hydrated proteinase K agarose (Sigma-Aldrich; St. Louis, Mo.) at 1 mg/ml for 1 hour at 37° C. in a 5% CO2 humidified incubator then filtered through a 0.2 μm pore-size filter prior to being used in the transmigration and intraperitoneal assays. Murine T-cells were incubated with pertussis toxin (Sigma-Aldrich; St. Louis, Mo.) at 100 ng/ml for 1 hour at 37° C. in a 5% CO2 humidified incubator, prior to being used in the transmigration assays. EL4CM24 was incubated with radiciol (Sigma-Aldrich; St. Louis, Mo.) for two hours at room temperature at concentrations 0.1 μg/ml and 7.3 μg/ml. The transmigration was then carried out using the EL4CM24 mixture. As a control, transmigration assays were also carried out using gradients of HSF media supplemented with 7.3 μg/ml of radicol or using EL4CM24-radicicol mixtures from which excess radiciol had been removed using 5 kDa size exclusion Centricon Ultrafree filters (Millipore; Billerica, Mass.). EL4 cells in HSF were also exposed to Geldanamycin at 1.2 μM or 200 nM prior to use of the CM in transmigration assays. EL4 cells in HSF were also exposed to Brefeldin A at 10 μg/ml overnight for a full 24 hours prior to use of the EL4CM24 in transmigration assays. […]

murine T-cells = test: Quantitative transmigration assay (ChemoTx), negative gradients of EL4 conditioned media; type: cell-based, C57BL/6 mice; details: compared with untreated EL4CM24
Description: C57BL/6 mice (4 to 8 weeks old) (Jackson Laboratories; Bar Harbor Me.) were euthanized, and dissection of superficial cervical, axillary, brachial and inguinal lymph nodes was performed under sterile conditions. Dissected lymph nodes were then physically disaggregated and a cell suspension generated. The cell suspension was then enriched for T cells by depletion of non-T cells using MACS Pan T cell isolation kit for mouse leukocytes (Miltenyi Biotec; Auburn, Calif.).
Quantitative transmigration assays were carried out as described previously. In brief, ChemoTx chemotaxis 30 μl well plates with 3 μm pore size filters (Neuro Probe; Gaithersburg, Md.) were used. 20,000 murine T-cells were loaded in the upper chamber of the ChemoTx system and subjected to positive, negative and uniform gradients of EL4CM24 in a standard checkerboard analysis of cell migration. The peak concentrations used in each gradient were 1 in 2, 1 in 10, and 1 in 100 dilutions of EL4CM24 with 10.5 media; Isocove's supplemented with 0.5% fetal calf serum, 50 units/ml Penicillin, 50 μg/ml Streptomycin and 292 μg/ml L-Glutamine (Mediatech; Herndon, Va.). […] The chemotactic index was calculated as the quotient of the average number of cells migrating in response to EL4CM24 and the average number of cells migrating in response to media alone. […]

With “HSP90α: heat shock protein in EL-4 conditioned medium, removed by immunoprecipitation with a monoclonal antibody” the “reduction in the fugetactic effect of the CM on T-cells infiltrating the peritoneal cavity” value [1] was “four-fold reduction”.

For `C[C@H]1CCC/C=C/[C@@H]2C[C@H](O)C[C@H]2[C@H](O)/C=C/C(=O)O1` [Brefeldin A], the viability (EL4 cells) was “Greater than 65%”.

pertussis toxin was tested, and the “level of migration of lymphocytes” value (murine T-cells) was “significantly reduced”.

With `C[C@@H]1C[C@H]2O[C@@H]2/C=C\C=C\C(=O)Cc2c(Cl)c(O)cc(O)c2C(=O)O1` [radicicol] the “level of migration of lymphocytes” value (murine T-cells) was “not significantly reduced”.
